Data: PubChem BioAssay AID844 (SRMLSC, 2007)
Activity calls are given as the source filed them. How the calls were made is not given here.

Tests used:
[1] = viability protection against doxorubicin, MRP-1 line – cell-based, doxorubicin EC50 shift, dose response (AID 844); details: MRP1 cells, doxorubicin viability shift, 10 uM compound; at 100 µM (top of the series);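 on viability: tested at 10 µM; plate controls were cells with vehicle for no effect and cells with cytotoxic drug for full effect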
[2] = test system: MRP1 cells, doxorubicin viability shift, 10 uM compound; test: as above; details: for EC50: measured here: doxorubicin EC50 with compound

SMILES | viability [1] | EC50 [2] [µM] | fold increase in Dox EC50 [2]
Oc1ccc(-c2nc(-c3ccc(O)c(O)c3)cs2)cc1 | 1.94% (inactive) | < 0.195 | –
COc1cccc(/C=N/NC(=O)c2cc(-c3cccn3C)n[nH]2)c1O | 9.49% (inactive) | < 0.195 | –
CCOC(=O)c1c(CSC(=N)N)n(-c2ccc(C)cc2)c2cc(Br)c(OC(C)=O)cc12 | 0.37% (inactive) | < 0.195 | –
Cc1cc(N/N=C/c2ccc(O)cc2O)nc(-n2nc(C)cc2C)n1 | 15.5% (inactive) | < 0.195 | –
COc1cc(C2Nc3cccc4cccc(c34)N2)cc(OC)c1O | 1.31% (inactive) | < 0.195 | –
NS(=O)(=O)c1ccc(N=Nc2c(-c3ccccc3)[nH]n(-c3nc(-c4ccccc4)cs3)c2=O)cc1 | 8.13% (inactive) | < 0.195 | –
N=C(N)SCc1ccc(Cl)cc1Cl | 10.9% (inactive) | < 0.195 | –
NC1C2CN(c3nc4c(cc3F)c(=O)c(C(=O)O)cn4-c3ccc(F)cc3F)CC12 (centres undefined) | 17.6% (inactive) | < 0.195 | –
Cc1ccccc1Cn1ccc(NC(=O)c2onc(C)c2Cl)n1 | – | 6.24 | 1.15 (inactive)
Cn1c(=O)c2c(nc(OCc3ccccc3)n2C)n(C)c1=O | – | 3.78 | 0.7 (inactive)
Clc1ccc(OCc2nnnn2-c2ccccc2)cc1 | – | 5.21 | 0.96 (inactive)
CN(CC(=O)NCCc1ccc(Cl)cc1)S(=O)(=O)c1ccc2c(c1)c(=O)n(C)c(=O)n2C | – | 2.93 | 0.54 (inactive)
CCc1nccn1C(=O)c1cnn2c(C(F)F)cc(-c3ccc(C)cc3)nc12 | – | 0.523 | 0.1 (inactive)
Cc1nnc2sc(-c3ccncc3)nn12 | – | 4.31 | 0.8 (inactive)
O=C1NC(=O)C2(COC(c3ccccc3Cl)OC2)S1 (centres undefined) | – | 3.74 | 0.69 (inactive)
CCOc1ccc2nc(SCC#N)c(C#N)cc2c1 | – | 1.62 | 0.3 (inactive)
Cc1cccc(Nc2nnc(SCC(=O)Nc3cccnc3Cl)s2)c1 | – | 3.3 | 0.61 (inactive)
O=C1Nc2ccccc2CCC1Sc1nnc(-c2ccc(Cl)cc2)s1 (centres undefined) | – | 7.13 | 1.32 (inactive)
COc1ccc(Cc2nnc(NC(=O)c3c(-c4ccccc4)noc3C)s2)cc1OC | – | 2.79 | 0.52 (inactive)
CCCCc1nnc(NC(=O)CSc2nc(=O)cc(N)n2-c2cccc(C)c2)s1 | – | 7.08 | 1.31 (inactive)
CCCCCn1c(CN2CCCCC2C)nc2c1c(=O)n(C)c(=O)n2C (centres undefined) | – | 0.883 | 0.16 (inactive)

SMILES | viability [1] | EC50 [2] [µM] | fold increase in Dox EC50 [2]
O=C(O)c1ccc(N/N=C/c2ccc(F)c(F)c2)cc1 | – | 7.07 | 1.31 (inactive)
Cc1ccc(OCCN2CCN(C(=O)CCC(=O)Nc3nnc(C)s3)CC2)cc1 | – | 8.28 | 1.53
CC(C)c1ccc(CNc2cc(N3CCCC3)ccc2[N+](=O)[O-])cc1 | – | 4.36 | 0.81 (inactive)
Cc1nc(N2CCN(Cc3ccccc3)CC2)nc2c1C(=O)CC(c1ccco1)C2 (centres undefined) | – | 4.04 | 0.75 (inactive)
COc1ccc(N2C(=O)C(CC(=O)Nc3ccc(F)cc3)N(CCc3cccs3)C2=O)cc1 (centres undefined) | – | 4.38 | 0.81 (inactive)
O=C(NCc1ccc(Cl)cc1)C(=O)NCC1OCCN1C(=O)c1cccs1 (centres undefined) | – | 7.17 | 1.33 (inactive)
COc1ccc(CNc2nc(NCc3ccc(OC)cc3)n(C(=O)c3ccccc3[N+](=O)[O-])n2)cc1 | – | 3.9 | 0.72 (inactive)
Cc1cccc(NC(=O)Cn2c(=O)n(Cc3ccco3)c(=N)c3c4c(sc32)COC(C)(C)C4)c1 | – | 4.37 | 0.81 (inactive)
CCc1ccc(-c2csc(NC(=O)Oc3ccccc3)n2)cc1 | – | 6.65 | 1.23 (inactive)
O=C(Nc1ccn(Cc2ccccc2F)n1)c1ccc(COc2ccc(Cl)cc2Cl)o1 | – | 5.15 | 0.95 (inactive)
COc1cccc(Nc2ncc(C(=O)O)c3ccccc23)c1 | – | 3.01 | 0.56 (inactive)
COc1ccc(NC(=O)COC(=O)c2c3c(nc4ccccc24)CCCC3)cc1Cl | – | 3.65 | 0.68 (inactive)
CC(CCc1ccccc1)NC(=O)c1nnc(Cc2ccc(Cl)cc2)o1 (centres undefined) | – | 6.1 | 1.13 (inactive)
Cc1noc(/C=C/N(C)C)c1S(=O)(=O)N1CCCC(C(=O)NCc2ccccc2Cl)C1 (centres undefined) | – | 4.42 | 0.82 (inactive)
COc1ccc(-n2c(C)nc(=O)c(-c3ccccc3)c2C)cc1 | – | 4.47 | 0.83 (inactive)
COC(=O)N/N=C/c1ccc(-c2ccc(Cl)c(Cl)c2)o1 | – | 3.62 | 0.67 (inactive)
Cc1ccc(COc2cccc3c2CCN(Cc2ccc(F)cc2)C3=O)cc1 | – | 5.52 | 1.02 (inactive)
CC(C)CNC(=O)c1cccc(NC(=O)Cc2ccc(Br)cc2)c1 | – | 4.98 | 0.92 (inactive)
Cc1ccc(S(=O)(=O)N/N=C\c2cn(-c3ccccc3)nc2-c2ccccc2)cc1 | – | 7.44 | 1.38 (inactive)
COc1ccc(-c2nc(-c3cccc(C)c3)no2)cc1OC | – | 3.73 | 0.69 (inactive)
O=C(Cc1ccccc1F)Nc1cccc2cccnc12 | – | 9.04 | 1.68

SMILES | viability [1] | EC50 [2] [µM] | fold increase in Dox EC50 [2]
O=C1Cc2ccccc2C(=O)N1CCc1ccccc1 | – | 2.37 | 0.44 (inactive)
O=C(Nc1ccc(N2CCCCC2)c(Cl)c1)c1ncn[nH]1 | – | 4.22 | 0.78 (inactive)
COc1ccc(CNc2nc3c(c(=O)n(Cc4ccc(Br)cc4)c(=O)n3C)n2C)cc1 | – | 5.13 | 0.95 (inactive)
Cc1ccsc1CNn1cnnc1SCc1ccc(Cl)cc1 | – | 4.22 | 0.78 (inactive)
Cc1cc(C)nc(NN2C(=O)/C(=C/c3ccc(O)cc3)SC2=S)n1 | – | 7.51 | 1.39 (inactive)
Cc1c(C(=O)OC(C)C)sc(N)c1C(=O)OC(C)C | – | 5.08 | 0.94 (inactive)
CCOC(=O)Cc1csc(NC(=S)NC(=O)C(C)(C)C)n1 | – | 6.45 | 1.2 (inactive)
Cc1ccc(NC(=O)CCC(=O)N/N=C/c2cccs2)cc1C | – | 5.23 | 0.97 (inactive)
Cc1ccccc1NC(=O)CC1SC(=O)N(c2ccccc2)C1=O (centres undefined) | – | 7.29 | 1.35 (inactive)
Cc1noc(/C=C/N(C)C)c1S(=O)(=O)N1CCCC(C(=O)NCc2ccco2)C1 (centres undefined) | – | 5.6 | 1.04 (inactive)
N#Cc1nc(COc2ccccc2)oc1N1CCCCCC1 | – | 3.17 | 0.59 (inactive)
O=[N+]([O-])c1ccc(N/N=C/c2ccccc2)c(F)c1 | – | 3.44 | 0.64 (inactive)
CC(C)Cn1c2c(c(O)c(C(=O)Nc3nccs3)c1=O)CCCC2 | – | 4.48 | 0.83 (inactive)
O=C(CSc1ccccc1)Nc1nnc(COc2ccc(Cl)cc2)s1 | – | 2.34 | 0.43 (inactive)
Oc1c(C(c2cccs2)N2CCN(c3cccc(Cl)c3)CC2)sc2ncnn12 (centres undefined) | – | 3.68 | 0.68 (inactive)
COc1ccc(NC(=O)CC2C(=O)N(c3ccc(F)cc3)C(=S)N2NC(=O)c2ccccc2)cc1 (centres undefined) | – | 4.29 | 0.79 (inactive)
Cc1cc(NC(=O)CN2C(=O)S/C(=C\c3ccccc3)C2=O)no1 | – | 5.58 | 1.03 (inactive)
CCCCOc1ccc(C(=O)Oc2ccc(C)nc2)cc1 | – | 4.88 | 0.9 (inactive)
COc1ccc(C2C(C(=O)OCC(=O)NC(C)(C)C)CCC(=O)N2c2ccc(C)cc2)cc1OC (centres undefined) | – | 4.36 | 0.81 (inactive)
Cc1cccc(OCc2nc(-c3nonc3N)no2)c1C | – | 4.22 | 0.78 (inactive)
